Experimental data as given in US20230119355A1, “PHARMACEUTICAL COMPOSITIONS OF A KINASE INHIBITOR” (AURIGENE DISCOVERY TECHNOLOGIES LIMITED, priority 2020, published 2023).
Where a name gives a salt, the structure may show the parent alone. Read-outs that look alike come from different tables or passages of the source.

Experiments:
[1] = Bioavailability after oral administration; format: in vivo
[2] = Water solubility / ionisation at physiological pH; format: physicochemical

Row | bioavailability after oral administration [1] | solubility in water ([2]; physiological pH range) | ionisation state ([2]; within the physiological pH range) | bioavailability after oral administration ([1]; listed as Hydrochloride salt forms of compound (I)) | water solubility of the salt form ([2]; hydrochloride salt forms compared with compound (I)) | Structure (SMILES)
1 | very low | practically insoluble | neutral | – | – | Cn1cc(-c2ccc3c(c2)ncn3-c2cc(NS(=O)(=O)C3CC3)cc(-c3ccc(F)cc3F)c2)cn1 [Compound (I), N-(2′,4′-difluoro-5-(5-(1-methyl-1H-pyrazol-4-yl)-1H-benzo[d]imidazol-1-yl)-[1,1′-biphenyl]-3-yl)cyclopropanesulfonamide]
2 | – | – | – | improved | enhanced | Cn1cc(-c2ccc3c(c2)ncn3-c2cc(NS(=O)(=O)C3CC3)cc(-c3ccc(F)cc3F)c2)cn1 [Compound (I) HCl salt, hydrochloride salt of N-(2′,4′-difluoro-5-(5-(1-methyl-1H-pyrazol-4-yl)-1H-benzo[d]imidazol-1-yl)-[1,1′-biphenyl]-3-yl)cyclopropanesulfonamide]
